The subject of one data set is Osteoclast. Description: Inhibition of RANKL-induced osteoclast differentiation in ICR mouse bone marrow after 48 hrs by TRAP assay. The data set is classed as functional, cell-based.
The nature of data set [1]: Cytotoxicity against ICR mouse osteoclasts by MTT assay. It is filed as cell-based. Particulars: osteoclast. (Tetrazolium dyes change colour on reduction, which living cells bring about.)

SMILES strings stand for the structures.

As to `COc1cc(C(=O)O[C@@H]2CN(C)CC[C@@H]2c2c(O)cc(O)c3c(=O)cc(C)oc23)ccc1O`, in the data set on Osteoclast, the IC50 (usually the concentration needed to halve the response being measured) worked out at 15.1 µM and the inhibition result was “Dose-dependent effect”. Moreover, in data set [1], the Activity result was “Non-toxic”.
As for `COc1cc(/C=C/C(=O)O[C@@H]2CN(C)CC[C@@H]2c2c(O)cc(O)c3c(=O)cc(C)oc23)cc(OC)c1OC`, in the data set on Osteoclast, 9.8 µM corresponded to half-maximal inhibition (IC50) and the inhibition result was “Dose-dependent effect”. The Activity result in data set [1] is listed as “Non-toxic”.

The values above are taken from ChEMBL document CHEMBL3259546, “Chrotacumines G-J, chromone alkaloids from Dysoxylum acutangulum with osteoclast differentiation inhibitory activity” (Bioorg Med Chem Lett, 2014).
